Data taken from paper PMC3383692, “Characterization of Plasmodium falciparum Adenylyl Cyclase-β and Its Role in Erythrocytic Stage Parasites” (PLoS ONE, 2012).
Like-named read-outs stand apart in the source and are kept apart here.

Experiments:
[1] = biological target: T1, PfACβ (adenylyl cyclase-β) (Plasmodium falciparum, UniProt C0H4R1); assay: radioactive two-column adenylyl cyclase assay with purified GST-PfACβ[…]-785; format: biochemical
T1 construct: gene PF3D7_0802600; GST-PfACβ1-785 (catalytic domains, AA 1–785)
T1 sequence (C0H4R1 1-785): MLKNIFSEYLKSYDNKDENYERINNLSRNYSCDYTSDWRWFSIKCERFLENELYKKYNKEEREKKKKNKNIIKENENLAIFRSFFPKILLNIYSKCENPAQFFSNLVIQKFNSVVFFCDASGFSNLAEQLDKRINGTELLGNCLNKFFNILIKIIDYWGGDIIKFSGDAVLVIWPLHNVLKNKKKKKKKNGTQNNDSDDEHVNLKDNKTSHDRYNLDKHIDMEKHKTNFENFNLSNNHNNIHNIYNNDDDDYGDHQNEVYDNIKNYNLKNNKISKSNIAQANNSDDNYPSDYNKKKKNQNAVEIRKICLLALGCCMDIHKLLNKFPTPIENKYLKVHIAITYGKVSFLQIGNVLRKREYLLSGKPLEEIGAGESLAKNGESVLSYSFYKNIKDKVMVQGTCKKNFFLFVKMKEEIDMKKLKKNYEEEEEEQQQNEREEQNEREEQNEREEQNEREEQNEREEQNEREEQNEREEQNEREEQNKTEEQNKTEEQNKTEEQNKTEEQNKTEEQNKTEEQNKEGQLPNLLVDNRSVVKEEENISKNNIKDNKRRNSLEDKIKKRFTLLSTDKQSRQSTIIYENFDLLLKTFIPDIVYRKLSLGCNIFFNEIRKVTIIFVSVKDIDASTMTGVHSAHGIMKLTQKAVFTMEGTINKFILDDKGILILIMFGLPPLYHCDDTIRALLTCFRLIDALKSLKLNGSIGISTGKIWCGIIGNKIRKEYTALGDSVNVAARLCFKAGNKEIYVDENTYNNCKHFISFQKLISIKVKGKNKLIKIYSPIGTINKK

PfACα = biological target: T2, PfACα (Plasmodium falciparum, UniProt Q8I7A1); assay: adenylyl cyclase activity in PfACα-expressing Hi5 cells, […] 2-CE; format: cell-based
T2 construct: gene ac1
T2 sequence (Q8I7A1 1-884): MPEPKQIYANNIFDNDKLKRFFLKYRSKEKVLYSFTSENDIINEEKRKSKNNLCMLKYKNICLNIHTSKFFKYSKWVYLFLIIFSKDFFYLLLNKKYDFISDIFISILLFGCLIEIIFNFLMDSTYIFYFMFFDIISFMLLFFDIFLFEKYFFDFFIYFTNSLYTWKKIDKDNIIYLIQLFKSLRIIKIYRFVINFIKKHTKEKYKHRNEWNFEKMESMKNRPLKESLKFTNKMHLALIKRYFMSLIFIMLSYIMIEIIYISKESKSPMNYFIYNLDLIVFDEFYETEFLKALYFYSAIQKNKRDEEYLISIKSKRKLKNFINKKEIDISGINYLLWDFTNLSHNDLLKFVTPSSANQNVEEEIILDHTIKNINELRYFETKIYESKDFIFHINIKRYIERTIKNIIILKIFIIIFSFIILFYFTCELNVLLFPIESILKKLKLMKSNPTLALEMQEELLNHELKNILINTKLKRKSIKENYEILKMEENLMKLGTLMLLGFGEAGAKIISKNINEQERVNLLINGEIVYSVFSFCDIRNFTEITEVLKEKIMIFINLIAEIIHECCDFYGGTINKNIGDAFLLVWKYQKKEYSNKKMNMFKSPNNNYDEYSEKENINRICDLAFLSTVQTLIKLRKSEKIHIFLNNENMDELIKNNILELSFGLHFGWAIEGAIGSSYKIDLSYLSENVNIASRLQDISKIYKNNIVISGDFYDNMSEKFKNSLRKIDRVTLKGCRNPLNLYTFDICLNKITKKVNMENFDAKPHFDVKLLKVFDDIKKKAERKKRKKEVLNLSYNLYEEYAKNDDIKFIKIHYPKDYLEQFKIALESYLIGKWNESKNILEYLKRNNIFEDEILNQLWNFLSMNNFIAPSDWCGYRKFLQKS

[2] = substrate: Nc1ncnc2c1ncn2[C@@H]1O[C@H](COP(=O)(O)OP(=O)(O)OP(=O)(O)O)[C@@H](O)[C@H]1O; assay: Michaelis-Menten kinetics (Km), adenylyl cyclase assay with purified enzyme; format: biochemical, Plasmodium falciparum; details: Mn2+ active site; lack of cooperative binding of substrate

## CC(Sc1nc2ccccc2[nH]1)C(=O)N/N=C/c1cc(Br)ccc1O (racemic) [KH7]
[1]; read-out: IC50
  IC50: 5 µM

## KH7.15
[1]; read-out: IC50
  IC50: 150 µM

## C[C@]12CC[C@@H]3c4cc(O)c(O)cc4CC[C@H]3[C@@H]1CC[C@@H]2O [2-CE, 2-hydroxyestradiol]
PfACα
  adenylyl cyclase activity in PfACα-expressing Hi5 cells, 50 μM 2-CE: although PfACα adenylyl cyclase activity was inhibited by 2-CE, it was largely insensitive to KH7 (Figure 4C)
[1]
  IC50: 8 µM

B1: PfACβ (adenylyl cyclase-β) (Plasmodium falciparum 3D7) (protein)
chain: MLKNIFSEYLKSYDNKDENYERINNLSRNYSCDYTSDWRWFSIKCERFLENELYKKYNKEEREKKKKNKNIIKENENLAIFRSFFPKILLNIYSKCENPAQFFSNLVIQKFNSVVFFCDASGFSNLAEQLDKRINGTELLGNCLNKFFNILIKIIDYWGGDIIKFSGDAVLVIWPLHNVLKNKKKKKKKNGTQNNDSDDEHVNLKDNKTSHDRYNLDKHIDMEKHKTNFENFNLSNNHNNIHNIYNNDDDDYGDHQNEVYDNIKNYNLKNNKISKSNIAQANNSDDNYPSDYNKKKKNQNAVEIRKICLLALGCCMDIHKLLNKFPTPIENKYLKVHIAITYGKVSFLQIGNVLRKREYLLSGKPLEEIGAGESLAKNGESVLSYSFYKNIKDKVMVQGTCKKNFFLFVKMKEEIDMKKLKKNYEEEEEEQQQNEREEQNEREEQNEREEQNEREEQNEREEQNEREEQNEREEQNEREEQNKTEEQNKTEEQNKTEEQNKTEEQNKTEEQNKTEEQNKEGQLPNLLVDNRSVVKEEENISKNNIKDNKRRNSLEDKIKKRFTLLSTDKQSRQSTIIYENFDLLLKTFIPDIVYRKLSLGCNIFFNEIRKVTIIFVSVKDIDASTMTGVHSAHGIMKLTQKAVFTMEGTINKFILDDKGILILIMFGLPPLYHCDDTIRALLTCFRLIDALKSLKLNGSIGISTGKIWCGIIGNKIRKEYTALGDSVNVAARLCFKAGNKEIYVDENTYNNCKHFISFQKLISIKVKGKNKLIKIYSPIGTINKK
notes: GST-PfACβ1-785 (catalytic domains, AA 1–785)
[2]
  Km: 570 µM
